According to patent publication US8952024B2, “Herbicidal pyrimidone derivatives” (E I du Pont de Nemours and Company, priority 2009, dated 2015):

Tests used:
Assay type in all cases: in vivo
[1] = system: umbrella sedge (Cyperus difformis); test: Test B flooded paddy test; conditions: for Plant response rating, Flood, Sedge, Umbrella: 250 g ai/ha, flooded paddy test, visual rating on 0 to 100 scale (0 no effect, 100 complete control) after 13 to 15 days; for Plant response rating, Sedge, Umbrella: Flood (flooded paddy test), 13 to 15 days; for Sedge, Umbrella plant response rating: Flood, 31 g ai/ha, scale 0 to 100 (0 no effect, 100 complete control)
Summary of the method: (§1)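 Visual scores run from 0 (no effect) to 100 (complete control), assigned by comparison with controls 13 to 15 days after treatment. Test compounds went straight into water standing 3 cm above the soil, around plants at the 2-leaf stage kept in a greenhouse.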

rice (Oryza sativa) = test: Test B flooded paddy test; conditions: for Plant response rating, Flood, Rice: 250 g ai/ha, flooded paddy test, visual rating on 0 to 100 scale (0 no effect, 100 complete control) after 13 to 15 days; for Plant response rating, Rice: Flood (flooded paddy test), 13 to 15 days; for Rice plant response rating: Flood, 31 g ai/ha, scale 0 to 100 (0 no effect, 100 complete control)
Summary of the method: as §1

[2] = system: barnyardgrass (Echinochloa crus-galli); test: Test B flooded paddy test; conditions: for Plant response rating, Flood, Barnyardgrass: 250 g ai/ha, flooded paddy test, visual rating on 0 to 100 scale (0 no effect, 100 complete control) after 13 to 15 days; for Plant response rating, Barnyardgrass: Flood (flooded paddy test), 13 to 15 days; for Barnyardgrass plant response rating: Flood, 31 g ai/ha, scale 0 to 100 (0 no effect, 100 complete control)
Summary of the method: as §1

[3] = system: ducksalad (Heteranthera limosa); test: Test B flooded paddy test; conditions: for Plant response rating, Flood, Ducksalad: 250 g ai/ha, flooded paddy test, visual rating on 0 to 100 scale (0 no effect, 100 complete control) after 13 to 15 days; for Plant response rating, Ducksalad: Flood (flooded paddy test), 13 to 15 days; for Ducksalad plant response rating: Flood, 31 g ai/ha, scale 0 to 100 (0 no effect, 100 complete control)
Summary of the method: as §1

[4] = system: winter barley (Hordeum vulgare); test: Test B postemergence plant response; conditions: for Barley plant response rating (0 to 100 scale): 62 g ai/ha, 0 is no effect, 13 to 15 days
Summary of the method: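 Plants at the 1- to 4-leaf stage (2 to 18 cm tall), grown in pots of peat moss/vermiculite medium with wetting agent and starter nutrients, received postemergence applications of test chemicals. After 13 to 15 days in a greenhouse, injury was rated visually against untreated controls on a 0 (no effect) to 100 (complete control) scale.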

[5] = system: wheat (Triticum aestivum); test: Test A pre-/postemergence plant response
Summary of the method: (§2)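 Visually rated 0–100 injury (100 = complete control) versus untreated plants, ~10 days in greenhouse. Application pre- (soil spray, loam/sand) and postemergence (2–10 cm, 1–2 leaf stage), same timepoint.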

[6] = system: large crabgrass (Digitaria sanguinalis); test: Test A pre-/postemergence plant response
Summary of the method: as §2

[7] = system: barnyardgrass (Echinochloa crus-galli); test: Test A pre-/postemergence plant response
Summary of the method: as §2

[8] = system: giant foxtail (Setaria faberii); test: Test A pre-/postemergence plant response
Summary of the method: as §2

[9] = system: pigweed (Amaranthus retroflexus); test: Test A pre-/postemergence plant response
Summary of the method: as §2

[10] = system: morningglory (Ipomoea spp.); test: Test A pre-/postemergence plant response
Summary of the method: as §2

corn (Zea mays) = test: Test A pre-/postemergence plant response
Summary of the method: as §2

[11] = system: velvetleaf (Abutilon theophrasti); test: Test A pre-/postemergence plant response
Summary of the method: as §2

[12] = 62 g ai/ha, scale of 0 to 100 where 0 is no effect and 100 is complete control
[13] = 31 g ai/ha, postemergence, scale 0 to 100, 0 is no effect, 100 is complete control
[14] = postemergence, 100 is complete control
[15] = Postemergence, 125 g ai/ha, visual rating after 13 to 15 days, scale 0 (no effect) to 100 (complete control)
[16] = Postemergence, 250 g ai/ha, scale 0 to 100 (0 no effect, 100 complete control)
[17] = Postemergence, 125 g ai/ha, 0 to 100 scale where 0 is no effect and 100 is complete control
[18] = Postemergence, 500 g ai/ha, 0 to 100 scale, 0 = no effect, 100 = complete control, approx. ten days
[19] = Preemergence, 125 g ai/ha, 0 to 100 scale, 0 = no effect, 100 = complete control
[20] = Preemergence, 500 g ai/ha, visual injury, 0 to 100 scale (0 no effect, 100 complete control), approx. ten days
[21] = 125 g ai/ha, scale 0 to 100, 0 is no effect, 100 is complete control
[22] = Postemergence, 125 g ai/ha, visual injury, 0 to 100 scale (0 no effect, 100 complete control), approx. ten days

CCCc1ncc(C(=O)C2=C(O)CCCC2=O)c(=O)n1CC1CCCO1 (centres unmarked) [Compound 74]
Plant response rating, Flood, Sedge, Umbrella [1]: 60 | Plant response rating, Sedge, Umbrella [1, 12]: 30 | Plant response rating, Flood, Rice (rice (Oryza sativa)): 0 | Plant response rating, Rice (rice (Oryza sativa); [12]): 0 | Plant response rating, Flood, Barnyardgrass [2]: 40 | Plant response rating, Barnyardgrass [2, 12]: 0 | Plant response rating, Flood, Ducksalad [3]: 0 | Plant response rating, Ducksalad [3, 12]: 0 | Plant response rating, Barley [4, 13]: 0 | Barley plant response rating (0 to 100 scale) [4, 14]: 0 | Plant response rating, Barley [4, 15]: 0 | Plant response rating, Barley [4, 16]: 0 | Plant response rating, Wheat [5, 17]: 0 | Plant response rating, Wheat [5, 18]: 20 | Plant response rating, Wheat [5, 19]: 0 | Plant response rating, Wheat [5, 20]: 0 | Plant response rating, Crabgrass, Large [6, 17]: 90 | Plant response rating, Crabgrass, Large [6, 18]: 90 | Plant response rating, Crabgrass, Large [6, 19]: 70 | Plant response rating, Crabgrass, Large [6, 20]: 90 | Plant response rating, Barnyardgrass [7, 17]: 80 | Plant response rating, Barnyardgrass [7, 18]: 90 | Plant response rating, Barnyardgrass [7, 19]: 30 | Plant response rating, Barnyardgrass [7, 20]: 60 | Plant response rating, Foxtail, Giant [8, 17]: 40 | Plant response rating, Foxtail, Giant [8, 18]: 80 | Plant response rating, Foxtail, Giant [8, 19]: 0 | Plant response rating, Foxtail, Giant [8, 20]: 40 | Plant response rating, Pigweed [9, 17]: 100 | Plant response rating, Pigweed [9, 18]: 100 | Plant response rating, Pigweed [9, 19]: 90 | Plant response rating, Pigweed [9, 20]: 100 | Plant response rating, Morningglory [10, 17]: 90 | Plant response rating, Morningglory [10, 18]: 100 | Plant response rating, Morningglory [10, 19]: 40 | Plant response rating, Morningglory [10, 20]: 60 | Plant response rating, Corn (corn (Zea mays); [17]): 0 | Plant response rating, Corn (corn (Zea mays); [18]): 20 | Plant response rating, Corn (corn (Zea mays); [19]): 0 | Plant response rating, Corn (corn (Zea mays); [20]): 0 | Plant response rating, Velvetleaf [11, 17]: 90 | Plant response rating, Velvetleaf [11, 18]: 100 | Plant response rating, Velvetleaf [11, 19]: 70 | Plant response rating, Velvetleaf [11, 20]: 90

Cc1ccc(-c2ncc(C(=O)C3=C(O)CCCC3=O)c(=O)n2-c2ccccc2)cc1 [Compound 80]
Plant response rating, Flood, Sedge, Umbrella [1]: 40 | Plant response rating, Sedge, Umbrella [1, 12]: 20 | Plant response rating, Sedge, Umbrella [1, 21]: 30 | Sedge, Umbrella plant response rating [1]: 0 | Plant response rating, Flood, Rice (rice (Oryza sativa)): 15 | Plant response rating, Rice (rice (Oryza sativa); [12]): 0 | Plant response rating, Rice (rice (Oryza sativa); [21]): 0 | Rice plant response rating (rice (Oryza sativa)): 0 | Plant response rating, Flood, Barnyardgrass [2]: 30 | Plant response rating, Barnyardgrass [2, 12]: 20 | Plant response rating, Barnyardgrass [2, 21]: 25 | Barnyardgrass plant response rating [2]: 15 | Plant response rating, Flood, Ducksalad [3]: 30 | Plant response rating, Ducksalad [3, 12]: 20 | Plant response rating, Ducksalad [3, 21]: 30 | Ducksalad plant response rating [3]: 0 | Plant response rating, Barley [4, 13]: 15 | Barley plant response rating (0 to 100 scale) [4, 14]: 30 | Plant response rating, Barley [4, 15]: 30 | Plant response rating, Barley [4, 16]: 75 | Plant response rating, Wheat [5, 17]: 0 | Plant response rating, Wheat [5, 18]: 0 | Plant response rating, Wheat [5, 19]: 0 | Plant response rating, Wheat [5, 20]: 0 | Plant response rating, Crabgrass, Large [6, 17]: 70 | Plant response rating, Crabgrass, Large [6, 18]: 90 | Plant response rating, Crabgrass, Large [6, 19]: 50 | Plant response rating, Crabgrass, Large [6, 20]: 90 | Plant response rating, Barnyardgrass [7, 17]: 30 | Plant response rating, Barnyardgrass [7, 18]: 80 | Plant response rating, Barnyardgrass [7, 19]: 0 | Plant response rating, Barnyardgrass [7, 20]: 10 | Plant response rating, Foxtail, Giant [8, 17]: 70 | Plant response rating, Foxtail, Giant [8, 18]: 90 | Plant response rating, Foxtail, Giant [8, 19]: 10 | Plant response rating, Foxtail, Giant [8, 20]: 60 | Plant response rating, Pigweed [9, 17]: 100 | Plant response rating, Pigweed [9, 18]: 100 | Plant response rating, Pigweed [9, 19]: 60 | Plant response rating, Pigweed [9, 20]: 90 | Plant response rating, Morningglory [10, 17]: 100 | Plant response rating, Morningglory [10, 18]: 100 | Plant response rating, Morningglory [10, 19]: 0 | Plant response rating, Morningglory [10, 20]: 30 | Plant response rating, Corn (corn (Zea mays); [17]): 0 | Plant response rating, Corn (corn (Zea mays); [18]): 50 | Plant response rating, Corn (corn (Zea mays); [19]): 0 | Plant response rating, Corn (corn (Zea mays); [20]): 0 | Plant response rating, Velvetleaf [11, 17]: 100 | Plant response rating, Velvetleaf [11, 18]: 100 | Plant response rating, Velvetleaf [11, 19]: 50 | Plant response rating, Velvetleaf [11, 20]: 100

CCCCc1ncc(C(=O)C2=C(O)CCCC2=O)c(=O)n1-c1ccc(C)cc1 [Compound 67]
Plant response rating, Flood, Sedge, Umbrella [1]: 0 | Plant response rating, Sedge, Umbrella [1, 12]: 0 | Plant response rating, Sedge, Umbrella [1, 21]: 0 | Sedge, Umbrella plant response rating [1]: 0 | Plant response rating, Flood, Rice (rice (Oryza sativa)): 0 | Plant response rating, Rice (rice (Oryza sativa); [12]): 0 | Plant response rating, Rice (rice (Oryza sativa); [21]): 0 | Rice plant response rating (rice (Oryza sativa)): 0 | Plant response rating, Flood, Barnyardgrass [2]: 0 | Plant response rating, Barnyardgrass [2, 12]: 0 | Plant response rating, Barnyardgrass [2, 21]: 0 | Barnyardgrass plant response rating [2]: 0 | Plant response rating, Flood, Ducksalad [3]: 0 | Plant response rating, Ducksalad [3, 12]: 0 | Plant response rating, Ducksalad [3, 21]: 0 | Ducksalad plant response rating [3]: 0 | Plant response rating, Barley [4, 13]: 0 | Barley plant response rating (0 to 100 scale) [4, 14]: 5 | Plant response rating, Barley [4, 15]: 20 | Plant response rating, Barley [4, 16]: 30 | Wheat plant response rating [5, 22]: 20 | Plant response rating, Wheat [5, 18]: 30 | Plant response rating, Wheat [5, 19]: 0 | Plant response rating, Wheat [5, 20]: 0 | Crabgrass, Large plant response rating [6, 22]: 60 | Plant response rating, Crabgrass, Large [6, 18]: 90 | Plant response rating, Crabgrass, Large [6, 19]: 30 | Plant response rating, Crabgrass, Large [6, 20]: 90 | Barnyardgrass plant response rating [7, 22]: 70 | Plant response rating, Barnyardgrass [7, 18]: 90 | Plant response rating, Barnyardgrass [7, 19]: 0 | Plant response rating, Barnyardgrass [7, 20]: 40 | Foxtail, Giant plant response rating [8, 22]: 30 | Plant response rating, Foxtail, Giant [8, 18]: 60 | Plant response rating, Foxtail, Giant [8, 20]: 50 | Pigweed plant response rating [9, 22]: 100 | Plant response rating, Pigweed [9, 18]: 100 | Plant response rating, Pigweed [9, 19]: 90 | Plant response rating, Pigweed [9, 20]: 90 | Morningglory plant response rating [10, 22]: 100 | Plant response rating, Morningglory [10, 18]: 100 | Plant response rating, Morningglory [10, 19]: 30 | Plant response rating, Morningglory [10, 20]: 50 | Plant response rating, Corn (corn (Zea mays); [18]): 10 | Plant response rating, Corn (corn (Zea mays); [19]): 0 | Plant response rating, Corn (corn (Zea mays); [20]): 0 | Velvetleaf plant response rating [11, 22]: 100 | Plant response rating, Velvetleaf [11, 18]: 100 | Plant response rating, Velvetleaf [11, 19]: 70 | Plant response rating, Velvetleaf [11, 20]: 80
